The conditions of data set [1]: Jacobsen and Wengel, Pestic. Sci., 1986, 17, 686-690; cited from earlier work.
Another data set has as its system Botrytis cinerea. In words: microbe, parasite or virus in culture. The data set is classed as cell-based, Botrytis cinerea (grey mould).
The next data set relates to Fusarium graminearum. In words: microbe, parasite or virus in culture. The data set is classed as cell-based.
For data set [2], the system named is Pseudocercosporella herpotrichoides. In words: microbe, parasite or virus in culture. The data set is classed as cell-based, Pseudocercosporella herpotrichoides (eyespot).
Another data set concerns Pyricularia oryzae. In words: microbe, parasite or virus in culture. The data set is classed as cell-based.
The next data set deals with Rhizoctonia solani. In words: microbe, parasite or virus in culture. Type of data set: cell-based.
Data set [3] relates to Pseudocercosporella herpotrichoides. In words: Further in vitro assay, W-type and R-type isolates of Pseudocercosporella herpotrichoides. Type of data set: cell-based.
The subject of the next data set is Aspergillus niger. In words: microbe, parasite or virus in culture. The data set is classed as cell-based.
For data set [4], the system named is Erysiphe graminis f.sp hordei. Details: species or system Erysiphe graminis f.sp hordei (barley powdery mildew). Particulars: in vivo.
The next data set relates to Septoria tritici. In words: microbe, parasite or virus in culture. The data set is classed as cell-based, Septoria tritici (wheat leaf blotch).
In the next data set the test system is Rhynchosporium secalis. Type of data set: cell-based, Rhynchosporium secalis (barley leaf blotch).
Another data set has as its system Ustilago maydis. In words: microbe, parasite or virus in culture. Type of data set: cell-based, Ustilago maydis (maize smut).
The subject of another data set is Neurospora crassa. In words: microbe, parasite or virus in culture. The data set is classed as cell-based.
Another data set has as its system Helminthosporium solani. In words: Further in vitro assay, isolates of Helminthosporium solani. Type of data set: cell-based. Particulars: H. solani, Table 2(e).
A further data set relates to Fusarium sulphureum. In words: Further in vitro assay, isolates of Fusarium sulphureum. The data set is classed as cell-based. Particulars: F. sulphureum, Table 2(f).
The test system of a further data set is 14 day old seedlings. In words: Phytotoxic effects on sprayed 14 day old seedlings. The data set is classed as in vivo, barley. Particulars: dosage levels below those currently used for triazole fungicides.
Setting [5] is: read-out: % inhibition of growth in colony diameter.
Setting [6] is: Rhizoctonia solani, read-out: % inhibition of growth in colony diameter.
Setting [7] is: Aspergillus niger, read-out: % inhibition of growth in colony diameter.

We go through 7 compounds from US5886027A, “Fungicidal compounds” (BTG International Limited, priority 1995, dated 1999).

Molecules are shown by their SMILES. Converted amounts (≈) assume the structure as drawn.

Broadly, the inhibition is how much of the control response was suppressed.

In the case of `CC(C)c1cc2c(o1)C(=O)c1ccccc1C2=O` [(A)], in data set [1], the fungicidal activity result was “inactive”.

For the compound `CCC1(CC)CC2=C(O1)C(=O)c1ccccc1C2=O` [(B)], the fungicidal activity entry in data set [1] was “intermediate fungicidal activity”.

As to `c1ccc2[nH]cnc2c1` [Benzimidazole], in the data set on Botrytis cinerea, the “Sensitivity (S/R)” value was “R and S”. The “Sensitivity (R)” value (in the data set with Fusarium graminearum (isolate JF18); in data set [2]) was “R” each time.

Take `COC(=O)Nc1nc2ccccc2[nH]1` [Carbendazim, reference compound]: the inhibition at 1 µg/mL in the data set with Pyricularia oryzae (setting [5]) worked out at 14.7%; with Rhizoctonia solani (setting [6]), 3.3%. For the same compound, the inhibition at 4 µg/mL in the data set with Pyricularia oryzae (setting [5]) was found to be 99.4%; in the data set on Rhizoctonia solani (setting [6]), 81.2%. Besides, the “Sensitivity to Carbendazim” value was “Sensitive” in [3] (R-type isolate (first line)), “Resistant” in data set [3] (R-type isolate (second line)), “Sensitive” in data set [3] (W-type isolate (first line)) and “Resistant” in [3] (W-type isolate (second line)).

For the compound `CCCN(CCOc1c(Cl)cc(Cl)cc1Cl)C(=O)n1ccnc1` [Prochloraz, reference compound], the inhibition at 1 µg/mL in the data set on Aspergillus niger (Aspergillus niger, 1 mg/l, read-out: % inhibition of growth in colony diameter) is 97.1%.

In the case of `CC(C)(C)C(O)C(Oc1ccc(Cl)cc1)n1cncn1` (stereo not drawn) [Triadimenol], the “Sensitivity of isolate (S/R)” value in data set [4] is “S and R”.

Consider `CC1OC2=C(C(=O)C(=O)c3ccccc32)C1(C)C` (stereo not drawn) [dunnione], for which the “anti-fungal activity (in words)” value in the data set with Septoria tritici is reported as “active”; with Rhynchosporium secalis, “active”; in the data set with Ustilago maydis, “active”; in the data set with Neurospora crassa it was “Significant activity”; in the data set on Botrytis cinerea it was “some activity”; with Fusarium graminearum (Fusarium graminearum), “some activity”. The “level of activity compared with azole fungicides currently in use” value in the data set on Septoria tritici was “similar, or better”; in the data set on Rhynchosporium secalis, “similar, or better”; in the data set with Ustilago maydis it was “similar, or better”. Moreover, in the data set with Septoria tritici (Zymoseptoria tritici, read-out: Sensitivity MIC), the MIC turned out to be 5 µg/mL (≈ 20.6 µM). Further, the IC50 in the data set on Ustilago maydis (Mycosarcoma maydis, ATCC14826, read-out: ED50) was 3 µg/mL (≈ 12.4 µM); with Neurospora crassa (Neurospora crassa, read-out: ED50) it was 2 µg/mL (≈ 8.26 µM); in the data set with Botrytis cinerea (Botrytis cinerea, read-out: Sensitivity ED50) it was greater than 20 µg/mL; with Fusarium graminearum (Fusarium graminearum, read-out: Sensitivity ED50), 20 µg/mL (≈ 82.6 µM); in data set [2] (Oculimacula yallundae, read-out: Sensitivity ED50), 17 µg/mL (≈ 70.2 µM). Moreover, the “fungicidal activity (in words)” value in the data set with Aspergillus niger is recorded as “active”; in the data set on Pyricularia oryzae it was “active”; in the data set on Rhizoctonia solani, “active”; in data set [3] (Pseudocercosporella herpotrichoides) it was “inconsistent”. Further, the inhibition at 4 µg/mL was 30% with Aspergillus niger (setting [7]), 75% in the data set on Pyricularia oryzae (setting [5]) and 37% in the data set with Rhizoctonia solani (setting [6]). The inhibition at 20 µg/mL in the data set with Aspergillus niger (setting [7]) came to 99%; in the data set on Pyricularia oryzae (setting [5]), 99%; in the data set with Rhizoctonia solani (setting [6]), 93%. The inhibition at 100 µg/mL with Aspergillus niger (setting [7]), in the data set with Pyricularia oryzae (setting [5]) and with Rhizoctonia solani (setting [6]) was 100% each time. For the same compound, the cross-resistance with carbendazim entry in data set [3] (Table 2(d)) is “no evidence of cross-resistance”. Also, the cross-resistance with thiabendazole result with Helminthosporium solani and in the data set with Fusarium sulphureum was “no evidence of cross-resistance” throughout. For the same compound, the “fungicidal effect (in words)” value in [4] is “fungicidally effective”. Also, the phytotoxic effects result in the data set on 14 day old seedlings is listed as “no noticeable phytotoxic effects”.
